# Values quoted from earlier work in patent publication US20240117023A1, “METHOD” (Agency for Science, Technology and Research, priority 2021, published 2024).
# Tested on: RA and OA animal models
# Details: in vivo; cited from earlier work
structure (smiles),measurement,value
CN1C(=O)N(C[C@H](C(=O)NO)[C@@H](CC2CCCC2)C(=O)N2CCCCC2)C(=O)C1(C)C [Trocade],effect in animal models,protective effects against RA and OA
